Like-named read-outs stand apart in the source and are kept apart here.
What was measured:
[1] = tested on: capsaicin induced hypothermie; test: Hypothermie assay in the mouse (capsaicin induced hypothermie); assay type: in vivo; conditions: mouse, read-out: inhibition hypothermie (n = 5); for inhibition in vivo at 0.1 mg/kg: 0.1 mg/kg body weight po
VR1/TRPV1 receptor = VR1/TRPV1 receptor (Homo sapiens, UniProt Q8NER1); test: IC50 (human) after pH stimulus; assay type: cell-based; conditions: table 4
VR1/TRPV1 receptor, sequence (Q8NER1 whole entry): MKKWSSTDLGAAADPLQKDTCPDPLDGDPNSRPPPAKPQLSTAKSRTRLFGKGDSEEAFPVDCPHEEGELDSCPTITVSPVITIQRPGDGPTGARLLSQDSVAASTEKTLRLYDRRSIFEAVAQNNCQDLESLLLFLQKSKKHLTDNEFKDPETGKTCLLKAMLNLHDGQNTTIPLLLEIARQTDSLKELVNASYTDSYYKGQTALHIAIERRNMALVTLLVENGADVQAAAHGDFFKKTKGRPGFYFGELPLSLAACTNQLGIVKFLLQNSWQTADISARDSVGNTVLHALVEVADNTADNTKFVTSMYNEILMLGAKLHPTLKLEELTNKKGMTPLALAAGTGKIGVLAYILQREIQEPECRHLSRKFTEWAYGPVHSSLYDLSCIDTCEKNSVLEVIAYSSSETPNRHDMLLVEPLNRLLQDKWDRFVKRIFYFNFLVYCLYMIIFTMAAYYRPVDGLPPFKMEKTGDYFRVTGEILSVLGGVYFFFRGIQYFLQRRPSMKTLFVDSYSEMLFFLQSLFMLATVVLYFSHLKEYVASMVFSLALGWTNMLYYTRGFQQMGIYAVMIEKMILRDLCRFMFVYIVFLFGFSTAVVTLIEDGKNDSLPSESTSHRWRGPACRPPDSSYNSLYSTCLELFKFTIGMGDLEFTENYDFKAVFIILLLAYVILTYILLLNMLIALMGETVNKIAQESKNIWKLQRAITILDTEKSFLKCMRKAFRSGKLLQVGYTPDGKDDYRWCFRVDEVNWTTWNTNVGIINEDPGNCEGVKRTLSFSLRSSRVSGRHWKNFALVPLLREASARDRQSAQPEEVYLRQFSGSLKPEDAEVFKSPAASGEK

[2] = molecular target: T1, vanilloid receptor 1 (VR1/TRPV1) of the rat species (Rattus norvegicus, UniProt O35433); test: FLIPR Ca2+ influx assay on rat dorsal root ganglia cells (pharmacological method I); assay type: cell-based; conditions: table 4, capsaicin
T1 construct: The spinal column is removed from decapitated rats; from tissue; host or cells: primary cells dissociated from rat dorsal root ganglia
T1 sequence (O35433 whole entry): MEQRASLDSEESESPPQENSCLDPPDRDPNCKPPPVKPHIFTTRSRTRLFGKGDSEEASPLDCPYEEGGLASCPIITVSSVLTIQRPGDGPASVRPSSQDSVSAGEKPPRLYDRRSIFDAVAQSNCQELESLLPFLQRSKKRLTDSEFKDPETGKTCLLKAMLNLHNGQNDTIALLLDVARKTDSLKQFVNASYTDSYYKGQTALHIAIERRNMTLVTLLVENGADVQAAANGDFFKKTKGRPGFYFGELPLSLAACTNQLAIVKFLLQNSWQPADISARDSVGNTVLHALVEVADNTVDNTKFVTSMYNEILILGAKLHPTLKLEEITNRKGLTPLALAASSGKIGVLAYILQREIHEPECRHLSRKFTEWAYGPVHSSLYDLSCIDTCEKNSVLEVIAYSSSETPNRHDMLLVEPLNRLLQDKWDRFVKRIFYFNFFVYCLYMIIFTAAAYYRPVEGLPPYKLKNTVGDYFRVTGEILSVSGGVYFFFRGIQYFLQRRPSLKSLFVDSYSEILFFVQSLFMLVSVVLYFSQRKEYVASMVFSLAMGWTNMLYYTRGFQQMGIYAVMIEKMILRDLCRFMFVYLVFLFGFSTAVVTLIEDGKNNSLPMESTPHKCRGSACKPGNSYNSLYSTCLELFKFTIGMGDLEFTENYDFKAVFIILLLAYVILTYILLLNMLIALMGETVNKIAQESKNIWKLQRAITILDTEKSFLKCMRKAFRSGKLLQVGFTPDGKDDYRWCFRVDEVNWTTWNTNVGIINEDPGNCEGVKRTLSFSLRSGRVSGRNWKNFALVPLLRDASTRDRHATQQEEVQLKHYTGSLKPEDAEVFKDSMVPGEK
Summary of the method: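 Primary rat dorsal root ganglion cells loaded with 2 μM Fluo-4, Ca2+ influx read on FLIPR as peak fluorescence. Triplicates, at least 3 independent experiments.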

[3] = tested on: cold allodynia after chronic constriction injury; test: Neuropathic pain in mice, Bennet model (chronic constriction injury, cold allodynia); assay type: in vivo; conditions: mouse
Source text: VI. Neuropathic Pain in Mice
The efficacy of compounds of general formula I in the treatment of neuropathic pain is investigated by using the Bennet modell (chronic constriction injury; Bennett and Xie, 1988, Pain 33: 87-107.
NMRI mice (weight 16 to 18 g) under ketavet-rompun anaesthesia are supplied with three loose ligatures of the right nervus ischiaticus. The animals develop an oversensitivity to cold at the position of the pad that is innervated by the injured nerve which—after a recovery period of one week—is quantified over a period of three weeks by using a metal plate that is cooled to 4° C. (cold allodynia). The animals are observed for a period of 2 minutes on this plate and the number of brisk withdrawal reactions of the injured nerve is counted. […] The group size is n=10, the stastical significance of efficacy against allodynia (*=p<0.05) is determined by analysis of variance with repeated measurements and post hoc analysis with Bonferroni adjustment.

**Q.** How did the inhibition in vivo at 0.1 mg/kg [1] turn out when `CC(C(=O)NCc1ccc(C(F)(F)F)nc1OCCC(C)(C)C)c1ccc(NS(C)(=O)=O)c(F)c1` (stereo not drawn) [Example 125] was run?
**A.** Its inhibition in vivo at 0.1 mg/kg is 5%.

**Q.** What about the IC50 (VR1/TRPV1 receptor) of the same molecule?
**A.** The IC50 was 23.8 nM.

**Q.** What about the Ki ([2]; Ki (rat) Cap.) of the same molecule?
**A.** The Ki was 1 nM.

**Q.** What about the “inhibition Bennet model (n = 10)” value ([3]; 0.01 mg/kg body weight po) of the same molecule?
**A.** Its value is 0.01 po 17%.

**Q.** What does the source list for `CC(C(=O)NCc1ccc(C(C)(C)C)nc1OC1CCCC1)c1ccc(NS(C)(=O)=O)c(F)c1` (stereo not drawn) [Example 234, N-(6-tert-butyl-2-cyclopentyloxy-pyridin-3-ylmethyl)-2-(3-fluoro-4-methylsulfonamido-phenyl)-propionamide]?
**A.** inhibition in vivo at 0.1 mg/kg [1]: 19%; IC50 (VR1/TRPV1 receptor): 85.3 nM; Ki ([2]; read-out: Ki (rat) Cap.): 1 nM; inhibition Bennet model (n = 10) ([3]; 0.001 mg/kg body weight po): 0.001 po 26%

**Q.** `Cc1ccc(Cl)cc1Nc1nc(C(F)(F)F)ccc1CNC(=O)C(C)c1ccc(NS(C)(=O)=O)c(F)c1` (stereo not drawn) [Example 136, N-[2-(5-chloro-2-methyl-phenylamino)-6-trifluoromethyl-pyridin-3-ylmethyl]-2-(3-fluoro-4-methylsulfonamido-phenyl)-propionamide] was tested. Which inhibition in vivo at 0.3 mg/kg ([1]; 0.3 mg/kg body weight po) did it give?
**A.** The inhibition in vivo at 0.3 mg/kg was 43%.

**Q.** And the IC50 (VR1/TRPV1 receptor)?
**A.** Its IC50 is 140 nM.

**Q.** What about the Ki ([2]; read-out: Ki (rat) Cap.) of the same molecule?
**A.** Its Ki is 8.3 nM.

**Q.** What about the “inhibition Bennet model (n = 10)” value ([3]; 0.01 mg/kg body weight po) of the same molecule?
**A.** Its value is 0.01 po 13%.

Source: US8710233B2 (Gruenenthal GmbH, priority 2005, dated 2014)
